# Patent US10793542B2, “Hetroarylamine compounds for modulating the hedgehog pathway and preparing method and uses thereof” (DEVELOPMENT CENTER FOR BIOTECHNOLOGY, priority 2016, dated 2020)
# Tests used:
# Format in all cases: cell-based
# [1] = test system: hedgehog pathway (pGL3-7xGli-Luciferase reporter in C3H10T1/2 cells); experiment: Transient transfection of C3H10T1/2 and Gli-Luc reporter assay with SAG stimulation; conditions: Mus musculus, C3H 10T1/2, SAG 20 nM, 48 hr, read-out: Inhibition of Gli-Luc expression [IC50
# Method in brief: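 C3H10T1/2 cells were transiently transfected with a 7xGli-firefly luciferase reporter and a TK-Renilla control, then treated with serially diluted compounds plus 20 nM SAG in 0.5% FBS for 48 h at 37 °C. Firefly signal was normalized to Renilla and scaled between DMSO with SAG (100%) and without SAG (0%). IC50 was obtained by nonlinear regression.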
# [2] = target: T1, Smo wild type (Homo sapiens, UniProt Q99835); experiment: Reporter assay of C3H10T1/2-Gli-Luc cells transfected with wild-type Smo, without SAG; conditions: C3H10T1/2 cells transfected with pLPCX-SMO, no SAG, 48 hr; read-out: Inhibition of C3H10T1/2-Gli-Luc-Smo-WT [IC50
# T1 construct: expressed in transfected cells; host or cells: C3H10T1/2 cells (ATCC CCL-226), transient transfection with pLPCX-SMO
# T1 sequence (Q99835 28-787): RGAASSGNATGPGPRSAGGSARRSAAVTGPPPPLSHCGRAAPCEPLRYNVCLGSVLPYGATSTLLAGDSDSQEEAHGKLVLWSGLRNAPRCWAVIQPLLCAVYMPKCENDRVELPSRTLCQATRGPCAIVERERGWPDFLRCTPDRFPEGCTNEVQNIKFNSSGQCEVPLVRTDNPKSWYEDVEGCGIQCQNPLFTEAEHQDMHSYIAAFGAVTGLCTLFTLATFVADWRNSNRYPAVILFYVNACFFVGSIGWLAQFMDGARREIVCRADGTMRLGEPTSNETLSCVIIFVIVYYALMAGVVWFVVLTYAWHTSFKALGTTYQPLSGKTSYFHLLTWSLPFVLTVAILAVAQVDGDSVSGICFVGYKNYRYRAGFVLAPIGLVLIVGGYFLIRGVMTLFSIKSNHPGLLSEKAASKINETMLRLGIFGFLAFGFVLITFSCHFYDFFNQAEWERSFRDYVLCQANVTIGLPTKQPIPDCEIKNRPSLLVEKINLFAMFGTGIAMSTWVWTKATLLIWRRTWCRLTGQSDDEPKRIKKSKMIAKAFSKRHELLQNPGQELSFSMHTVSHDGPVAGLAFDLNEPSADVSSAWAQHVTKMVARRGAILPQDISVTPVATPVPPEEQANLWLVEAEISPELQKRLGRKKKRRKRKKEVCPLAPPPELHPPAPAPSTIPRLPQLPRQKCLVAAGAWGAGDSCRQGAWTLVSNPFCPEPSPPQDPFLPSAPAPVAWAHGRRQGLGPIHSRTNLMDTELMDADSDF
# Method in brief: (§1)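 C3H10T1/2-Gli-Luc cells transiently transfected with wild-type or D473H SMO, replated in 0.5% FBS RPMI and incubated with compounds 48 h at 37 °C without SAG. Dual-luciferase, firefly normalized to Renilla; scaled to DMSO (100%) and 10 μM ALLO-2 (0%); IC50 by nonlinear regression.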
# [3] = target: T2, Smo D473H mutant (Homo sapiens, UniProt Q99835, D473H); experiment: Reporter assay of C3H10T1/2-Gli-Luc cells transfected with Smo D473H mutant, without SAG; conditions: C3H10T1/2 cells transfected with pLPCX-SMO-D473H, no SAG, 48 hr; read-out: Inhibition of C3H10T1/2-Gli-Luc-Smo-D473H [IC50
# T2 construct: expressed in transfected cells; host or cells: C3H10T1/2 cells (ATCC CCL-226), transient transfection with pLPCX-SMO-D473H
# T2 sequence (Q99835 28-787 D473H): as the sequence (Q99835 28-787) above, with D446H counted along it
# Method in brief: as §1
IC50 [1] [nM],IC50 [2] [nM],IC50 [3] [nM],SMILES
< 100,< 100,100 to 1000,"CSc1cnc(Nc2ccc(C(=O)Nc3cc(CN4CCN(C)CC4)ccc3C)cc2)nc1-c1ccc(OC(F)(F)F)cc1 [Compound 37, N-[2-Methyl-5-(4-methyl-piperazin-1-ylmethyl)-phenyl]-4-[5-methylsulfanyl-4-(4-trifluoromethoxy-phenyl)-pyrimidin-2-ylamino]-benzamide]"
< 100,< 100,< 100,"Cc1ccc(CN2CCOCC2)cc1NC(=O)c1ccc(Nc2ncc([S+](C)[O-])c(-c3ccc(OC(F)(F)F)cc3)n2)cc1 (stereo not drawn) [Compound 85, 4-[5-Methanesulfinyl-4-(4-trifluoromethoxy-phenyl)-pyrimidin-2-ylamino]-N-(2-methyl-5-morpholin-4-ylmethyl-phenyl)-benzamide]"
< 100,< 100,< 100,"CCN(CC)Cc1ccc(C)c(NC(=O)c2ccc(Nc3cc(-c4ccc(OC(F)(F)F)cc4)c(SC)cn3)cc2)c1 [Compound 87, N-(5-((diethylamino)methyl)-2-methylphenyl)-4-((5-(methylthio)-4-(4-(trifluoromethoxy)phenyl)pyridin-2-yl)amino)benzamide]"
< 100,< 100,100 to 1000,"CCN(CC)Cc1cccc(NC(=O)c2ccc(Nc3ncc(SC)c(-c4ccc(OC(F)(F)F)cc4)n3)c(F)c2)c1 [Compound 56, N-(3-Diethylaminomethyl-phenyl)-3-fluoro-4-[5-methylsulfanyl-4-(4-trifluoromethoxy-phenyl)-pyrimidin-2-ylamino]-benzamide]"
100 to 1000,100 to 1000,100 to 1000,"CSc1cnc(Nc2ccc(C(=O)Nc3c(F)cccc3F)cc2)nc1-c1cccnc1 [Compound 10, N-(2,6-Difluoro-phenyl)-4-(5-methylsulfanyl-4-pyridin-3-yl-pyrimidin-2-ylamino)-benzamide]"
< 100,< 100,< 100,"COc1cnc(Nc2ccc(C(=O)Nc3cc(CN4CCOCC4)ccc3C)cc2F)nc1-c1ccc(F)cc1 [Compound 60, 3-Fluoro-4-[4-(4-fluoro-phenyl)-5-methoxy-pyrimidin-2-ylamino]-N-(2-methyl-5-morpholin-4-ylmethyl-phenyl)-benzamide]"
< 100,< 100,100 to 1000,"COc1cccc(OC)c1NC(=O)c1ccc(Nc2ncc(SC)c(-c3ccc(OC(F)(F)F)cc3)n2)cc1 [Compound 22, N-(2,6-Dimethoxy-phenyl)-4-[5-methylsulfanyl-4-(4-trifluoromethoxy-phenyl)-pyrimidin-2-ylamino]-benzamide]"
< 100,< 100,< 100,"CSc1cnc(Nc2ccc(C(=O)Nc3cc(CN4CCN(C)CC4)ccc3C)cc2)cc1-c1ccc(OC(F)(F)F)cc1 [Compound 82, N-[2-Methyl-5-(4-methyl-piperazin-1-ylmethyl)-phenyl]-4-[5-methylsulfanyl-4-(4-trifluoromethoxy-phenyl)-pyridin-2-ylamino]-benzamide]"
< 100,< 100,100 to 1000,"CCN(CC)Cc1ccc(C)c(NC(=O)c2ccc(Nc3ncc(OC)c(-c4ccc(OC(F)(F)F)cc4)n3)c(F)c2)c1 [Compound 61, N-(5-Diethylaminomethyl-2-methyl-phenyl)-3-fluoro-4-[5-methoxy-4-(4-trifluoromethoxy-phenyl)-pyrimidin-2-ylamino]-benzamide]"
< 100,< 100,100 to 1000,"CSc1cnc(Nc2ccc(C(=O)Nc3cc(CN4CCOCC4)ccc3C)cc2)cc1-c1ccc(F)cc1 [Compound 84, 4-((4-(4-fluorophenyl)-5-(methylthio)pyridin-2-yl)amino)-N-(2-methyl-5-(morpholinomethyl)phenyl)benzamide]"
< 100,< 100,100 to 1000,"CSc1cnc(Nc2ccc(C(=O)Nc3cc(CN(C)C)ccc3C)cc2)nc1-c1ccc(F)cc1 [Compound 31, N-(5-Dimethylaminomethyl-2-methyl-phenyl)-4-[4-(4-fluoro-phenyl)-5-methylsulfanyl-pyrimidin-2-ylamino]-benzamide]"
< 100,< 100,100 to 1000,"CSc1cnc(Nc2ccc(C(=O)Nc3cc(CN4CCCCC4)ccc3C)cc2)nc1-c1ccc(F)cc1 [Compound 48, 4-[4-(4-Fluoro-phenyl)-5-methylsulfanyl-pyrimidin-2-ylamino]-N-(2-methyl-5-piperidin-1-ylmethyl-phenyl)-benzamide]"
< 100,< 100,100 to 1000,"COc1cccc(C)c1NC(=O)c1ccc(Nc2ncc(SC)c(-c3cccnc3F)n2)c(F)c1 [Compound 15, 3-Fluoro-4-[4-(2-fluoro-pyridin-3-yl)-5-methylsulfanyl-pyrimidin-2-ylamino]-N-(2-methoxy-6-methyl-phenyl)-benzamide]"
100 to 1000,100 to 1000,100 to 1000,"CCOc1ccc(-c2nc(Nc3ccc(C(=O)Nc4ccc(Cl)c(C(F)(F)F)c4)cc3)ncc2SC)cn1 [Compound 7, N-(4-Chloro-3-trifluoromethyl-phenyl)-4-[4-(6-ethoxy-pyridin-3-yl)-5-methylsulfanyl-pyrimidin-2-ylamino]-benzamide]"
< 100,< 100,< 100,"CNc1cnc(Nc2ccc(C(=O)Nc3cc(CN4CCOCC4)ccc3C)cc2)nc1-c1ccc(OC(F)(F)F)cc1 [Compound 91, N-(2-methyl-5-(morpholinomethyl)phenyl)-4-((5-(methylamino)-4-(4-(trifluoromethoxy)phenyl)pyrimidin-2-yl)amino)benzamide]"
100 to 1000,100 to 1000,100 to 1000,"CSc1cnc(Nc2ccc(C(=O)Nc3cc(CN4CCNCC4)ccc3C)cc2F)nc1-c1ccc(F)cc1 [Compound 78, 3-Fluoro-4-[4-(4-fluoro-phenyl)-5-methylsulfanyl-pyrimidin-2-ylamino]-N-(2-methyl-5-piperazin-1-ylmethyl-phenyl)-benzamide]"
100 to 1000,100 to 1000,> 1000,"CSc1cnc(Nc2ccc(C(=O)Nc3c(C)cccc3C)cc2)nc1-c1ccc(OC(F)(F)F)cc1 [Compound 1, N-(2,6-Dimethyl-phenyl)-4-[5-methylsulfanyl-4-(4-trifluoromethoxy-phenyl) -pyrimidin-2-ylamino]-benzamide]"
< 100,< 100,100 to 1000,"CSc1cnc(Nc2ccc(C(=O)Nc3cc(CN4CCN(C)CC4)ccc3C)cc2F)nc1-c1cnn(C)c1 [Compound 46, 3-Fluoro-N-[2-methyl-5-(4-methyl-piperazin-1-ylmethyl)-phenyl]-4-[4-(1-methyl-1H-pyrazol-4-yl)-5-methylsulfanyl-pyrimidin-2-ylamino]-benzamide]"
< 100,< 100,< 100,"CCOc1cnc(Nc2ccc(C(=O)Nc3cc(CN4CCN(C)CC4)ccc3C)cc2)nc1-c1ccc(F)cc1 [Compound 76, 4-[5-Ethoxy-4-(4-fluoro-phenyl)-pyrimidin-2-ylamino]-N-[2-methyl-5-(4-methyl-piperazin-1-ylmethyl)-phenyl]-benzamide]"
< 100,< 100,< 100,"CSc1cnc(Nc2ccc(C(=O)Nc3cc(CN4CCOCC4)ccc3F)cc2F)nc1-c1ccc(OC(F)(F)F)cc1 [Compound 55, 3-Fluoro-N-(2-fluoro-5-morpholin-4-ylmethyl-phenyl)-4-[5-methylsulfanyl-4-(4-trifluoromethoxy-phenyl)-pyrimidin-2-ylamino]-benzamide]"
< 100,< 100,100 to 1000,"CSc1cnc(Nc2ccc(C(=O)Nc3cccc(CN4CCOCC4)c3)cc2)nc1-c1ccc(C(F)(F)F)nc1 [Compound 69, 4-[5-Methylsulfanyl-4-(6-trifluoromethyl-pyridin-3-yl)-pyrimidin-2-ylamino]-N-(3-morpholin-4-ylmethyl-phenyl)-benzamide]"
< 100,< 100,100 to 1000,"COc1cccc(OC)c1NC(=O)c1ccc(Nc2ncc(SC)c(-c3ccccc3)n2)cc1 [Compound 21, N-(2,6-Dimethoxy-phenyl)-4-(5-methylsulfanyl-4-phenyl-pyrimidin-2-ylamino)-benzamide]"
< 100,< 100,100 to 1000,"CSc1cnc(Nc2ccc(C(=O)Nc3cc(CN4CCOCC4)ccc3C)cc2)nc1-c1ccc(C#N)cc1 [Compound 33, 4-[4-(4-Cyano-phenyl)-5-methylsulfanyl-pyrimidin-2-ylamino]-N-(2-methyl-5-morpholin-4-ylmethyl-phenyl)-benzamide]"
< 100,100 to 1000,100 to 1000,"CSc1cnc(Nc2ccc(C(=O)Nc3cc(CN4CCCCC4)ccc3C)cc2)nc1-c1ccc(C(F)(F)F)cc1 [Compound 28, N-(2-Methyl-5-piperidin-1-ylmethyl-phenyl)-4-[5-methylsulfanyl-4-(4-trifluoromethyl-phenyl)-pyrimidin-2-ylamino]-benzamide]"
